Patent US10420755B2, “Use of ciclopirox for the treatment of congenital erythropoietic porphyria” (ASOCIACIÓN CENTRO DE INVESTIGACIÓN COOPERATIVA EN …, priority 2016, dated 2019)
Numbering of substitutions follows the chain as printed. Where a SMILES comes first, the peptide text is derived from it. The star is where a group is joined. Cbz = O=C(OCc1ccccc1)*

How the values were obtained:
[1] = test system: HEK 562 cells; assay: HPLC quantification of UROI in cellular model of CEP; format: cell-based, human; conditions: equimolar quantities of MG and ciclopirox
Procedure: Inset: variation of the concentration of UROI as a function of the CP concentration, in comparison to MG and the absence of any chemical. CP=ciclopirox, MG=proteasomal inhibitor MG132, UROI=uroporphyrinogen I.
Moreover, the reduction in the fluorescence corresponds to a decrease in the intracellular concentration of UROI (see FIG. 4).
HPLC was used to separate and quantify UROI and UROIII products from PBGD and UROIIIS-C73N enzymatic assays and from cellular extracts. HPLC was carried out on a ODS Hypersil C18 column (5 um, 3×200 mm; Thermo Scientific, MA, USA). Porphyrins were separated with a 15 min isocratic elution in a mobile phase of 89% 1M ammonium acetate buffer pH 5.16 and 11% Acetonitrile, at a flow rate of 0.5 mL/min, and were detected by fluorescence with an excitation wavelength 405 nm and emission wavelength 610 nm, which is characteristic of porphyrins. The sample injection volume was […].

[2] = test system: mouse in vivo model of CEP; conditions: associated with elevation of cellular UROIIIS levels; cited from earlier work
[3] = test system: HEK 562; assay: Porphyrin accumulation (fluorocytes) by FACS in cellular model of CEP; format: cell-based, human; conditions: HEK 562 CEP model
Procedure: FIG. 3: Evaluation of UROI levels in a normal HEK cellular phenotype [Up-left graph], in a human in vitro cellular model of CEP (HEK 562) [Up-right graph], in HEK 562 with a tool compound (a proteasome inhibitor termed in the data MG) [Down-left graph], and in HEK 562 with ciclopirox [Down-right graph]. The accumulation of porphyrins is measured by fluorescence spectroscopy (fluorocytes) and is depicted in as the right-shift of the population as compared to normal cells (that are concentrated on the left due to the absence of intrinsic fluorescence). The numbers in bold indicate the percentage of cells in each of the specific populations. CP=ciclopirox, MG=proteasomal inhibitor MG132.
The current supporting data disclosed is in relation to a human in vitro cellular model of CEP (HEK 562) in which there is a stable genomic defect introduced into the uroporphyrinogen III synthase enzyme which drives the accumulation of toxic porphyrins and ultimately the pathology of CEP (including the characteristic disabling and disfiguring skin lesions in CEP patients). […] The accumulation of porphyrins is measured by fluorescence spectroscopy (fluorocytes) and appear shifted to the right as compared to normal cells (which are concentrated in the left area). The numbers in bold indicate the percentage of cells in each of the specific populations. […]

[4] = molecular target: T1, C73N-UROIIIS (Homo sapiens, UniProt P10746, C73N); assay: In vitro enzymatic assay of UROIIIS (PBGD-coupled, as a function of PBG concentration); format: biochemical; conditions: ratio UROIIIS:ciclopirox 1:5
T1 construct: made in house
T1 sequence (P10746 1-265 C73N): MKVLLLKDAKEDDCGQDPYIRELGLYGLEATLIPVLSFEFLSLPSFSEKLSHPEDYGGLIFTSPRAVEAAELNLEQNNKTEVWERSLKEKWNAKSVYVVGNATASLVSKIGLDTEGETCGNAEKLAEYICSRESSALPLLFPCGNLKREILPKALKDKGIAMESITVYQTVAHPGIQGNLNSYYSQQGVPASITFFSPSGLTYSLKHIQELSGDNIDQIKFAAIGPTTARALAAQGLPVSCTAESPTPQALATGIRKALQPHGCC
Procedure: FIG. 1: evaluation of the C73N-UROIIIS catalytic activity as a function of the PBG concentration. Porphobilinogen deaminase (PBGD) converts porphobilinogen (PBG) into preuroporphirinogen, the substrate for UROIIIS. PBGD is added in excess, acting as a reagent and the experiment reports only on the catalytic activity of the uroporphyrinogen III synthase. The solid/dashed lines correspond to the experimental points in the absence/presence of ciclopirox at a ratio UROIIIS:ciclopyrox 1:5.
The in vitro activity of a deleterious variant of the UROIIIS is measured as a function of the PBG concentration. […] C73N-UROIIIS produces reduced catalytic activity of the enzyme (FIG. 1, solid line).
The assay is based on the method described by Jordan (Shoolingin-Jordan P M et al. (1997). Methods in enzymology 281: 327-336) with some modifications. […] of porphobilinogen deaminase (PBGD) at a concentration of […] in […] of buffer (20 mM Tris-HCl pH 8.0, NaCl 150 mM, pH 8.0) is add in a 96 weels plate. […] of the porphobilinogen (PBG) substrate are then added, diluted to different concentrations (0.1, 0.4, 0.8, 1.5, 2, 3, 4 mM) in the aforementioned buffer and are incubated at 37° C. for one minute. […] Finally, we measure the change of absorbance at 405 nm with respect to the control sample in a plate ABS reader.

[5] = molecular target: T2, C73R- and P248Q-UROIIIS (Homo sapiens, UniProt P10746, C73R); assay: UROIIIS-GFP protein levels (GFP fluorescence) in HEK cells stably expressing mutants; format: cell-based; conditions: HEK cells expressing C73R or P248Q mutants, compared with WT-UROIIIS
T2 construct: expressed in transfected cells
T2 sequence (P10746 1-265 C73R): T1 sequence (P10746 1-265 C73N) with N73R
Description: FIG. 2: A fusion construct with GFP (C73R-UROIIIS-GFP) has been stably expressed in HEK cells to measure the increase in the protein levels, by monitoring the intrinsic GFP fluorescence. […] Introduction of the pathogenic mutations (i. e. C73R or P248Q) reduces the intrinsic fluorescence due to a decrease in the intracellular UROIIIS concentration. […] For comparison, data obtained with a powerful proteasome inhibitor (MG) is also included. Dashed lines correspond to error bars. CP=ciclopirox, MG=proteasomal inhibitor MG132.
Specifically, we have tested the protein expression for the two most aggressive mutations: C73R- and P248Q-UROIIIS (FIG. 2), utilising human embryonic kidney cells (HEK) stably expressing these mutations.

[6] = molecular target: T3, UROIIIS (Homo sapiens, UniProt P10746); assay: Direct binding by NMR spectroscopy
T3 construct: made in house
T3 sequence (P10746 1-265): T1 sequence (P10746 1-265 C73N) with N73C

[7] = test system: murine model of CEP (P248Q+/+); assay: Murine model of CEP treated with ciclopirox in food; format: in vivo, mouse
Description: FIG. 5: Change in porphyrin levels and consequent effect on splenomegaly in mice treated with ciclopirox (CPX). A) Left: URO I or B) COPRO I porphyrin concentration in red blood cells (RBC) as determined by HPLC analysis for the mouse group treated with CPX (n=7, solid line) and the control group (n=9, dashed line). Right: representation of the same porphyrin levels but compared to their respective values at day 0 for the mice treated with CPX (solid line) and the untreated mice (dashed line). The reduction of porphyrins between the two groups is shown in grey dashed line (in percentage). C) Variation in the protoporphyrin IX (PROTO IX) concentration over time in the mouse group treated with CPX (solid line) and the control group (dashed line). D) Concentration of porphyrins in urine at day 45 of treatment (normalized versus creatinine concentration). E) Change in UROI levels in the liver at day 45 of treatment (weight normalized) F) CPX reduces splenomegaly after 45 days of treatment since the spleen volume of the untreated mice (top row) is higher than the CPX treated group (bottom row) Splenomegaly is directly associated with haemolytic anaemia.
Upon treatment disruption, the porphyrin levels are restored, but slowly.
Additionally, after 45 days of treatment, ciclopirox reduced in 40% the porphyrin levels in liver tissue (shown in FIG. 5-E for UROI) and the splenomegaly (FIG. 5-F)—evidence of reduced haemolysis. Moreover, there was a significant weight reduction of the spleen when comparing the ciclopirox group (mean 410±86 mg, FIG. 5-F bottom row) and the untreated group (mean 985±204 mg, FIG. 5-F top row).
A total of 16 animals (murine model of CEP) were used in the experiment and ciclopirox was mixed with the food pellets; 7 animals had food with ciclopirox (plasma levels achieved between 15 and 20 μM) and 9 animals were not given treatment. The isomer I porphyrin levels were monitored in the blood weekly. After a basal (pre-treatment) sample (day 0), treatment was started on day 2 and the first post-treatment sample was obtained on day 3, followed by weekly monitoring.

[8] = treated vs control group, up to day 45

Row | Compound | UROI level by HPLC [1] | Skin lesions [2] | Porphyrin accumulation / cellular phenotype (fluorocytes) [3] | C73N-UROIIIS catalytic (enzymatic) activity [4] | Intracellular UROIIIS-GFP fluorescence levels [5] | Direct binding to the enzyme [6] | Reduction of porphyrin levels in liver tissue (UROI) ([7]; after 45 days of treatment) [%] | Splenomegaly ([7]; after 45 days of treatment) | Spleen weight (mean) ([7]; after 45 days of treatment, untreated group 985±204 mg) [mg] | Isomer I porphyrins in urine ([7]; day 45, normalized versus creatinine) | Protoporphyrin IX (PROTO IX) concentration ([7]; over time, treated vs control) | COPRO I porphyrin in blood (RBC) [7, 8] | URO I porphyrin in blood (RBC) [7, 8]
1 | CC(C)C[C@@H](C=O)NC(=O)[C@H](CC(C)C)NC(=O)[C@H](CC(C)C)NC(=O)OCc1ccccc1 [MG] (Cbz-Leu-Leu-Leu-aldehyde) | reduction of UROI | decreased skin lesions | reduces toxic porphyrin levels | – | – | – | – | – | – | – | – | – | –
2 | Cc1cc(C2CCCCC2)n(O)c(=O)c1 [ciclopirox, 6-cyclohexyl-1-hydroxy-4-methyl-2(1H)-pyridone] | reduction of UROI | – | largely restore the normal HEK cellular phenotype | recovers the enzymatic activity | largely restitutes the fluorescence levels observed with WT-UROIIIS | Direct binding has also been demonstrated | 40 | reduced | 410 ± 86 | significantly reduced | increase the concentration | significantly reduced | significantly reduced
